Reference: US5059590A, “Imidazole derivatives, process for production thereof, and use thereof” (Yamasa Shoyu Kabushiki Kaisha, priority 1988, dated 1991)
≈ marks a conversion by molar mass, not a printed value.

Experiments:
T24 = experiment: In vitro anti-proliferative activity against human tumor cell lines (T24); assay type: cell-based; details: T-24, T24, Bladder trasitional-cell carcinoma, 72 hours
Description: (§1) In vitro anti-proliferative activity against human tumor cell lines
(§2) Test Compound: 5-ethynyl-1-β-D-ribofuranosylimidazole-4-carboxamide
(§3) A variety of human tumor cell lines are suspended in media specified according to the species of the cell lines to predetermined cell concentrations as shown in the following Table.
(§4) 1 ml of the resulting cell suspension is seeded into each well of a 24 multi-well plate and incubated in a 5% CO2 -incubator at 37° C. for 24 hours. The culture medium is then replaced by a medium containing no test compound or by an appropriate amount of a serially diluted test compound solution. […] The number of the cells in each well is counted with a Coulter counter (Model ZB, Coulter Electronics), and the growth inhibition percent (%) of the cells at each concentration of a test compound is determined by the following equation: [formula] Tx: Number of the cells in a well containing a test compound as counted upon completion of the incubation (cells/ml) […] Cx: Number of the cells in a well containing no test compound as counted upon completion of the incubation (cells/ml)
(§5) Co: Number of the cells in a well containing no test compound as counted at the initiation of the incubation (cells/ml) […]

[1] = test system: L1210 mouse leukemia cells; experiment: In vitro anti-proliferative activity against mouse tumor cell lines, Test Method 1 (L1210); assay type: cell-based; details: L1210, 48 hours, 37° C.
Description: (§6) In vitro anti-proliferative activity against mouse tumor cell lines
1. L1210 mouse leukemia cells are cultivated in RPMI1640 medium supplemented with 10% fetal bovine serum, and the resultant cells are diluted with the same medium in the logarithmic growth phase to a concentration of 1.6×10^5 cells/ml.
2. To test tubes each containing 0.9 ml of the above obtained diluted cell suspension is added 0.1 ml each of test solutions serially diluted with a culture medium or phosphate-buffered saline (PBS), and the mixture is incubated in a 2% CO2 -incubator at 37° C. for 48 hours.
3. After incubation, the number of the cells in each tube is counted with a Coulter counter (Model ZB, Coulter Electronics), and the growth inhibition percent (%) of the cells at each concentration of a test compound is calculated from the following equation: [formula] Tx: Number of the cells in a test tube containing a test compound as counted upon completion of the incubation (cells/ml)
Cx: Number of the cells in a test tube containing no test compound as counted upon completion of the incubation (cells/ml)
Co: Number of the cells in a test tube containing no test compound as counted at the initiation of the incubation (cells/ml)
4. The concentration of the test compound, which causes cell growth inhibition by 50%, is determined by the graph showing the relationship between the growth inhibition percent and the concentration of the test compound, and is defined as 50% inhibitory concentration (IC50).

PANC-1 = experiment: In vitro anti-proliferative activity against human tumor cell lines (PANC-1); assay type: cell-based; details: PANC-1, Pancreatic carcinoma, 72 hours
Description: as §1, §2, §3, §4, §5

[2] = test system: Mouse lymphoma cell line P388; experiment: In vitro anti-proliferative activity against mouse tumor cell lines, Test Method 2 (P388); assay type: cell-based; details: P388, 48 hours, 37° C.
Description: as §6
1. Mouse lymphoma cell line P388 or mouse sarcoma 180 is suspended in RPMI1640 medium supplemented with 10% fetal bovine serum and 2 μM 2-hydroxyethyl disulfide to a concentration of 10^5 cells/ml. Test compounds are serially diluted with the same medium.
2. 0.5 ml of the cell suspension thus obtained is admixed with 0.5 ml of the medium or the test compound solution, and the mixture is incubated in a 5% CO2 -incubator at 37° C. for 48 hours. The incubation is carried out in glass culture tubes.
3. At the end of incubation, the number of the cells in each tube is counted with a Coulter counter (Model ZB, Coulter Electronics), and the growth inhibition percent (%) is calculated from the same equation as in Test Method 1.
4. The IC50 value is obtained as in Test Method I.

WiDr = experiment: In vitro anti-proliferative activity against human tumor cell lines (WiDr); assay type: cell-based; details: Colon adenocarcinoma, 72 hours
Description: as §1, §2, §3, §4, §5

HeLa = experiment: In vitro anti-proliferative activity against human tumor cell lines (HeLa); assay type: cell-based; details: Cervical carcinoma, 72 hours
Description: as §1, §2, §3, §4, §5

[3] = test system: human gastric cancer cells, 4-1ST; experiment: In vivo antitumor activity against human gastric cancer cells, 4-1ST, subcutaneously implanted into nude mice; details: for Body weight / T/C (%) / Tumor growth rate (Rt): 125 mg/kg i.v. days 10, 14, 18
Description: In vivo antitumor activity against human gastric cancer cells, 4-1ST, subcutaneously implanted into nude mice
Human gastric cancer cells, 4-1ST(ca. 8 mm^3), are subcutaneously implanted at the ventral site of nude mice (BALB/c-nu/nu, female, 5 weeks old). Ten days after the implantation when the tumor volume reaches 150 to 300 mm^3, the mice are divided into groups (6 mice/group), and the treatment with a test drug was started.
5-Ethynyl-1-β-D-ribofuranosylimidazole-4-carboxamide is dissolved in distilled water and intravenously administered to the mice at a dose of 125 mg/kg on days 10, 14 and 18 after the implantation of the tumor, the volume of the drug solution being 0.1 ml per 10 g of the body weight of the mouse.
Each mouse is weighed, and width (a mm) and length (b mm) of the tumor thereof are measured twice a week to determine the tumor volume (A mm^3) from the following equation: […]
Subsequently, the tumor growth rate (R) is determined as follows on the basis of the tumor volume (A10) on day 10 after the implantation of the tumor cells:
R: Tumor growth rate after a predetermined period from the tumor implantation
A: Tumor volume after a predetermined period from the tumor implantation
A10 : Tumor volume as determined 10 days after the tumor implantation
T/C (%) is further obtained from the following equation by comparison between the tumor growth rate in the test group (Rt) and that in the control group (Rc):
Test group: 125 mg/kg of the drug was intravenously administered on days
10, 14 and 18 after the tumor implantation.

MG-63 = experiment: In vitro anti-proliferative activity against human tumor cell lines (MG-63); assay type: cell-based; details: MG-63, Osteogenic sarcoma, 72 hours
Description: as §1, §2, §3, §4, §5

SK-MES-1 = experiment: In vitro anti-proliferative activity against human tumor cell lines (SK-MES-1); assay type: cell-based; details: SK-MES-1, Lung Squamous carcinoma, 72 hours
Description: as §1, §2, §3, §4, §5

[4] = day 22, * = P < 0.05 vs control
[5] = day 25, * = P < 0.05 vs control

Question: What does the source list for `C#Cc1c(C(N)=O)ncn1[C@@H]1O[C@H](CO)[C@@H](O)[C@H]1O` [5-ethynyl-1-β-D-ribofuranosylimidazole-4-carboxamide]?
Answer: IC50 (T24): 0.37 µg/mL (≈ 1.38 µM); IC50 [1]: 0.18 µg/mL (≈ 0.674 µM); IC50 (PANC-1): 0.9 µg/mL (≈ 3.37 µM); IC50 [2]: 0.16 µg/mL (≈ 0.599 µM); IC50 (WiDr): 0.46 µg/mL (≈ 1.72 µM); IC50 (HeLa): 0.3 µg/mL (≈ 1.12 µM); antitumor activity ([3]; 125 mg/kg every 4 days 3 times in total, i.v.): remarkable antitumor activity; Body weight ([3]; day 10 after implantation): 20 g; T/C (%) ([3]; day 10 after implantation): 100%; Tumor growth rate (Rt) ([3]; day 10 after implantation): 1.0; Body weight ([3]; day 14): 21 g; T/C (%) ([3]; day 14): 67%; Tumor growth rate (Rt) ([3]; day 14): 3.0; Body weight ([3]; day 17): 21 g; T/C (%) ([3]; day 17): 67%; Tumor growth rate (Rt) ([3]; day 17): 5.1; Body weight ([3]; day 22): 22 g; T/C (%) [3, 4]: 60%; Tumor growth rate (Rt) [3, 4]: 8.0; Body weight ([3]; day 25): 23 g; T/C (%) [3, 5]: 63%; Tumor growth rate (Rt) [3, 5]: 12; Body weight ([3]; day 28): 23 g; T/C (%) ([3]; day 28): 67%; Tumor growth rate (Rt) ([3]; day 28): 16; Body weight ([3]; day 31): 24 g; T/C (%) ([3]; day 31): 71%; Tumor growth rate (Rt) ([3]; day 31): 20; Body weight ([3]; day 35): 23 g; T/C (%) ([3]; day 35): 77%; Tumor growth rate (Rt) ([3]; day 35): 30; IC50 (MG-63): 0.38 µg/mL (≈ 1.42 µM); IC50 (SK-MES-1): 0.26 µg/mL (≈ 0.973 µM)
